From ChEMBL document CHEMBL5506004, “Optimizing drug-like properties of selective butyrylcholinesterase inhibitors for cognitive improvement: Enhancing aqueous solubility by disrupting molecular plane” (Eur J Med Chem, 2024)
In brackets after ≈: the same amount, converted by molar mass. Activity calls are given as the source filed them. No cut-off for these calls is given here.

System: not listed separately
Test: Solubility of compound in FaSSIF incubated for 24 hrs by HPLC analysis
Type: ADME
Details: not given

**Q.** Which solubility at 24 h does the source give for `CN1CCN(C(=O)c2ccc(NC(=O)Cn3c(-c4nonc4N)nc4ccccc43)cc2)CC1` here?
**A.** Its solubility at 24 h is 1020 µM (≈ 471 µg/mL).

**Q.** For `Nc1nonc1-c1nc2ccccc2n1CC(=O)Nc1ccc(C(=O)N2CCOCC2)cc1`, which solubility at 24 h is on record?
**A.** Its solubility at 24 h is 467 µM (≈ 209 µg/mL).

**Q.** With `Nc1nonc1-c1nc2ccccc2n1CC(=O)Nc1cnc2ccccc2c1` as the molecule, how does the solubility at 24 h read?
**A.** The solubility at 24 h was 231 µM (≈ 89 µg/mL).

**Q.** For `Nc1nonc1-c1nc2ccccc2n1CC(=O)Nc1ccc(CC(=O)N2CCOCC2)cc1`, which solubility at 24 h is on record?
**A.** Its solubility at 24 h is 951 µM (≈ 439 µg/mL).

**Q.** For `Nc1nonc1-c1nc2ccccc2n1CC(=O)Nc1cccc(N2CCOCC2)c1`, which solubility at 24 h is on record?
**A.** Its solubility at 24 h is 1270 µM (≈ 534 µg/mL).

**Q.** For `Nc1nonc1-c1nc2ccccc2n1CC(=O)Nc1cccnc1`, which solubility at 24 h is on record?
**A.** Its solubility at 24 h is 373 µM (≈ 125 µg/mL).

**Q.** For `Nc1nonc1-c1nc2ccccc2n1CC(=O)Nc1cccc(CC(=O)N2CCOCC2)c1`, which solubility at 24 h is on record?
**A.** Its solubility at 24 h is 728 µM (≈ 336 µg/mL).

**Q.** Which solubility at 24 h does the source give for `Nc1nonc1-c1nc2ccccc2n1CC(=O)Nc1ccncc1` here?
**A.** The solubility at 24 h was 474 µM (≈ 159 µg/mL).

**Q.** Which solubility at 24 h does the source give for `COC(=O)c1cncc(NC(=O)Cn2c(-c3nonc3N)nc3ccccc32)c1` here?
**A.** Its solubility at 24 h is 211 µM (≈ 83 µg/mL).

**Q.** Which solubility at 24 h does the source give for `Nc1nonc1-c1nc2ccccc2n1CC(=O)Nc1cncc(Br)c1` here?
**A.** The solubility at 24 h was 476 µM (≈ 197 µg/mL).

**Q.** Which solubility at 24 h does the source give for `Nc1nonc1-c1nc2ccccc2n1CC(=O)Nc1ccc(N2CCCCC2)cc1` here?
**A.** Its solubility at 24 h is 86.2 µM (≈ 36 µg/mL).

**Q.** Which solubility at 24 h does the source give for `CN1CCN(c2ccc(NC(=O)Cn3c(-c4nonc4N)nc4ccccc43)cc2)CC1` here?
**A.** The solubility at 24 h was 1360 µM (≈ 588 µg/mL).

**Q.** For `Nc1nonc1-c1nc2ccccc2n1CC(=O)Nc1ccc(CN2CCOCC2)cc1`, which solubility at 24 h is on record?
**A.** Its solubility at 24 h is 3050 µM (≈ 1320 µg/mL).

**Q.** Which solubility at 24 h does the source give for `CN1CCN(c2ccccc2NC(=O)Cn2c(-c3nonc3N)nc3ccccc32)CC1` here?
**A.** Its solubility at 24 h is 483 µM (≈ 209 µg/mL).

**Q.** Which solubility at 24 h does the source give for `Nc1nonc1-c1nc2ccccc2n1CC(=O)Nc1cncc(Cl)c1` here?
**A.** Its solubility at 24 h is 462 µM (≈ 171 µg/mL).

System: Mus musculus
Test: Cognitive enhancing effect in Amyloid beta (1 to 42)-treated ICR mouse assessed as reduction in trajectory uncertainty at 10 mg/kg, po administered daily measured after 7 to 12 days by Morris water maze test
Type: functional, organism-based
Details: time 7-12 day

**Q.** Which Activity does the source give for `COc1cc2c(cc1OC)C(=O)C(CC1CCN(Cc3ccccc3)CC1)C2` (stereo unspecified) here?
**A.** The Activity was “Active”.

System: not listed separately
Test: Acute toxicity in ICR mouse assessed as animal death at 1 g/kg, IG
Details: in vivo, po, 1000 mg/kg

**Q.** With `Nc1nonc1-c1nc2ccccc2n1CC(=O)Nc1ccc(CN2CCOCC2)cc1` as the molecule, how does the Activity read?
**A.** The Activity was “Non-Toxic”.

System: HT-22
Test: Cytotoxicity against mouse HT-22 cells assessed as survival rate at 100 uM incubated for 24 hrs by MTT assay relative to control
Type: functional
Details: read-out: Survival

**Q.** Which viability at 100 µM does the source give for `Nc1nonc1-c1nc2ccccc2n1CC(=O)Nc1ccc(CN2CCOCC2)cc1` here?
**A.** Its viability at 100 µM is 66.5%.

System: not listed separately
Test: Metabolic stability in human liver microsomes assessed as compound metabolism at 2 uM measured for 60 mins by LC-MS/MS analysis
Type: ADME, Microsome
Details: read-out: Drug metabolism

**Q.** Which metabolised at 1 h, 2 µM does the source give for `Nc1nonc1-c1nc2ccccc2n1CC(=O)Nc1ccc(CN2CCOCC2)cc1` here?
**A.** The metabolised at 1 h, 2 µM was under 15%.

System: not listed separately
Test: Cytotoxicity against human L02 cells assessed as survival rate at 100 uM incubated for 24 hrs by MTT assay relative to control
Type: toxicity, cell-based
Details: read-out: Survival

**Q.** Which viability at 24 h, 100 µM does the source give for `Nc1nonc1-c1nc2ccccc2n1CC(=O)Nc1ccc(CN2CCOCC2)cc1` here?
**A.** Its viability at 24 h, 100 µM is 114%.

System: not listed separately
Test: Acute toxicity in ICR mouse assessed as animal growth at 1 g/kg, IG
Details: in vivo, po, 1000 mg/kg

**Q.** For `Nc1nonc1-c1nc2ccccc2n1CC(=O)Nc1ccc(CN2CCOCC2)cc1`, which Activity is on record?
**A.** Its Activity is “Non-Toxic”.

Target: Cholinesterase (Equus caballus, UniProt P81908)
Sequence (P81908 whole entry): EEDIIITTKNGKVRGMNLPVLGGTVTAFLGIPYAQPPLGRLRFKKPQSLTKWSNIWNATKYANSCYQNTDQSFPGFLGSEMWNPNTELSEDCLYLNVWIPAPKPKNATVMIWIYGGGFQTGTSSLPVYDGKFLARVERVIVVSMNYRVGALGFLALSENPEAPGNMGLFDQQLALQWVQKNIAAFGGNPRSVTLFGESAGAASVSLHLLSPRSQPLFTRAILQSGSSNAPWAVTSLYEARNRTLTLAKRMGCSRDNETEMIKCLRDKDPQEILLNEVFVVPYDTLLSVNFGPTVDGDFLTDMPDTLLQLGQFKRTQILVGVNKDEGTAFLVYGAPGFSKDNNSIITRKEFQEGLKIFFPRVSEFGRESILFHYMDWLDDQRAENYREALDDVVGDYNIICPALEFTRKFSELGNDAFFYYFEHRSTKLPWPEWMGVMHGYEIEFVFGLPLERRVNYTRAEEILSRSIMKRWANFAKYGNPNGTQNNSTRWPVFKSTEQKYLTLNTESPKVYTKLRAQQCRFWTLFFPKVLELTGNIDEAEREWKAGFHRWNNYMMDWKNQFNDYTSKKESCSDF
Test: Inhibition of horse serum BChE using BTC iodide as substrate preincubated for 5 mins followed by substrate addition measured after 2 mins by Ellman's method
Details: not given

**Q.** With `CN1CCN(C(=O)c2ccc(NC(=O)Cn3c(-c4nonc4N)nc4ccccc43)cc2)CC1` as the molecule, how does the IC50 read?
**A.** The IC50 was 84 nM.

**Q.** For `Nc1nonc1-c1nc2ccccc2n1CC(=O)Nc1ccc(C(=O)N2CCOCC2)cc1`, which IC50 is on record?
**A.** Its IC50 is 67 nM.

**Q.** Which IC50 does the source give for `Nc1nonc1-c1nc2ccccc2n1CC(=O)Nc1ccc(CC(=O)N2CCOCC2)cc1` here?
**A.** Its IC50 is 123 nM.

**Q.** Which IC50 does the source give for `Nc1nonc1-c1nc2ccccc2n1CC(=O)Nc1cccc(N2CCOCC2)c1` here?
**A.** Its IC50 is 49.5 nM.

**Q.** With `Nc1nonc1-c1nc2ccccc2n1CC(=O)Nc1cccnc1` as the molecule, how does the IC50 read?
**A.** Its IC50 is 154 nM.

**Q.** With `Nc1nonc1-c1nc2ccccc2n1CC(=O)Nc1cccc(CC(=O)N2CCOCC2)c1` as the molecule, how does the IC50 read?
**A.** Its IC50 is 193 nM.

**Q.** With `Nc1nonc1-c1nc2ccccc2n1CC(=O)Nc1ccncc1` as the molecule, how does the IC50 read?
**A.** The IC50 was 172 nM.

**Q.** With `COC(=O)c1cncc(NC(=O)Cn2c(-c3nonc3N)nc3ccccc32)c1` as the molecule, how does the IC50 read?
**A.** Its IC50 is 43 nM.

**Q.** With `Nc1nonc1-c1nc2ccccc2n1CC(=O)Nc1cncc(Br)c1` as the molecule, how does the IC50 read?
**A.** The IC50 was 15.4 nM.

**Q.** Which IC50 does the source give for `Nc1nonc1-c1nc2ccccc2n1CC(=O)Nc1ccc(N2CCCCC2)cc1` here?
**A.** The IC50 was 168 nM.

**Q.** For `CN1CCN(c2ccc(NC(=O)Cn3c(-c4nonc4N)nc4ccccc43)cc2)CC1`, which IC50 is on record?
**A.** Its IC50 is 92.3 nM.

**Q.** For `Nc1nonc1-c1nc2ccccc2n1CC(=O)Nc1ccc(CN2CCOCC2)cc1`, which IC50 is on record?
**A.** The IC50 was 14 nM.

**Q.** With `CN1CCN(c2ccccc2NC(=O)Cn2c(-c3nonc3N)nc3ccccc32)CC1` as the molecule, how does the IC50 read?
**A.** The IC50 was 524 nM.

**Q.** Which IC50 does the source give for `Nc1nonc1-c1nc2ccccc2n1CC(=O)Nc1cncc(Cl)c1` here?
**A.** Its IC50 is 31.6 nM.

System: not listed separately
Test: Metabolic stability in human liver microsomes assessed as compound remaining at 2 uM measured after 12.8 mins by LC-MS/MS analysis
Type: ADME, Microsome
Details: read-out: Activity

**Q.** With `C[C@]12CC[C@H]3[C@@H](CCC4=CC(=O)CC[C@@]43C)[C@@H]1CC[C@@H]2O` [TESTOSTERONE] as the molecule, how does the remaining at 0.2133 h, 2 µM read?
**A.** Its remaining at 0.2133 h, 2 µM is 50%.

System: Mus musculus
Test: Cognitive enhancing effect in Amyloid beta (1 to 42)-treated ICR mouse assessed as shorter arrival time at 10 mg/kg, po administered daily measured after 7 to 12 days by Morris water maze test
Type: functional, organism-based
Details: time 7-12 day

**Q.** For `COc1cc2c(cc1OC)C(=O)C(CC1CCN(Cc3ccccc3)CC1)C2` (stereo unspecified), which Activity is on record?
**A.** Its Activity is “Active”.

System: not listed separately
Test: Permeability of compound at 50 ug/ml incubated for 18 hrs by PAMPA
Type: ADME
Details: dose 50 µg/ml, read-out: permeability

**Q.** Which Papp at 18 h, 50 ug/ml does the source give for `Nc1nonc1-c1nc2ccccc2n1CC(=O)Nc1ccc(CN2CCOCC2)cc1` here?
**A.** Its Papp at 18 h, 50 ug/ml is 5.38 ×10⁻⁶ cm/s.

System: SH-SY5Y
Test: Neuroprotective activity against amyloid beta (1 to 42)-induced neuronal death in human SH-SY5Y cells assessed as cell viability pretreated for 1 hr followed by amyloid beta (1 to 42) addition measured after 24 hrs by MTT assay
Type: functional, cell-based
Details: dose 1-10 µM, time 25.0 hrs

**Q.** Which Activity does the source give for `Nc1nonc1-c1nc2ccccc2n1CC(=O)Nc1ccc(CN2CCOCC2)cc1` here?
**A.** Its Activity is “Dose-Dependent Effect”.

System: SH-SY5Y
Test: Cytotoxicity against human SH-SY5Y cells assessed as survival rate at 100 uM incubated for 24 hrs by MTT assay relative to control
Type: functional
Details: read-out: Survival

**Q.** Which viability at 100 µM does the source give for `Nc1nonc1-c1nc2ccccc2n1CC(=O)Nc1ccc(CN2CCOCC2)cc1` here?
**A.** Its viability at 100 µM is 131%.

System: PC-12
Test: Neuroprotective activity in rat PC12 cells assessed as cell viability pretreated for 2 hrs followed by H2O2 addition measured after 24 hrs by MTT assay
Type: functional, cell-based
Details: time 26.0 hrs

**Q.** For `Nc1nonc1-c1nc2ccccc2n1CC(=O)Nc1ccc(CN2CCOCC2)cc1`, which Activity is on record?
**A.** The Activity was “Dose-Dependent Effect”.

System: PC-12
Test: Cytotoxicity against rat PC12 cells assessed as survival rate at 100 uM incubated for 24 hrs by MTT assay relative to control
Type: functional
Details: read-out: Survival

**Q.** For `Nc1nonc1-c1nc2ccccc2n1CC(=O)Nc1ccc(CN2CCOCC2)cc1`, which viability at 100 µM is on record?
**A.** Its viability at 100 µM is 101%.

System: not listed separately
Test: Tmax in Sprague-Dawley rat at 10 mg/kg, po measured for 1 to 1440 mins by LC-MS/MS analysis
Type: ADME, organism-based
Details: in vivo, time 1-1440 min

**Q.** Which Tmax does the source give for `Nc1nonc1-c1nc2ccccc2n1CC(=O)Nc1cnc2ccccc2c1` here?
**A.** The Tmax was 9.5 min.

Target: Cholinesterase (Homo sapiens, UniProt P06276)
Sequence (P06276 whole entry): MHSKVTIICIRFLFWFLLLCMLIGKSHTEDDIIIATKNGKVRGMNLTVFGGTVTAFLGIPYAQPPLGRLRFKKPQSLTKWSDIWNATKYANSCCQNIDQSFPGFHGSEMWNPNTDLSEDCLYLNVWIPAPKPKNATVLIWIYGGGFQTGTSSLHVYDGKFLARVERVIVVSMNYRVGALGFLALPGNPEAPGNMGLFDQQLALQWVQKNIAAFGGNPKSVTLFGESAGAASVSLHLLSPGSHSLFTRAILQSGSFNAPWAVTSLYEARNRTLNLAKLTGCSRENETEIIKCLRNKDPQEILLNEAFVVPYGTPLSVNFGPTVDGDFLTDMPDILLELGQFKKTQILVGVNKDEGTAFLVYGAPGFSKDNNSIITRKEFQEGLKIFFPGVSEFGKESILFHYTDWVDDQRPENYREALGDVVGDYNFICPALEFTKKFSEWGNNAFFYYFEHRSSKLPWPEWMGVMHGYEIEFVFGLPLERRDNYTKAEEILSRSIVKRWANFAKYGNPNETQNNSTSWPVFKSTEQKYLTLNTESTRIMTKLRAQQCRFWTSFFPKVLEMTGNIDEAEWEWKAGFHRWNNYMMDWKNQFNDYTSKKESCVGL
Test: Inhibition of human BChE using BTC iodide as substrate preincubated for 5 mins followed by substrate addition measured after 2 mins by Ellman's method
Details: not given

**Q.** Which IC50 does the source give for `Nc1nonc1-c1nc2ccccc2n1CC(=O)Nc1cncc(Br)c1` here?
**A.** The IC50 was 119 nM.

**Q.** For `Nc1nonc1-c1nc2ccccc2n1CC(=O)Nc1ccc(CN2CCOCC2)cc1`, which IC50 is on record?
**A.** Its IC50 is 106 nM.

System: BV-2
Test: Cytotoxicity against mouse BV-2 cells assessed as survival rate at 100 uM incubated for 24 hrs by MTT assay relative to control
Type: functional
Details: read-out: Survival

**Q.** For `Nc1nonc1-c1nc2ccccc2n1CC(=O)Nc1ccc(CN2CCOCC2)cc1`, which viability at 100 µM is on record?
**A.** The viability at 100 µM was 78.2%.
